Reference: patent publication US20020015743A1, “USE OF THE RB1, GINSENOSIDE FOR STIMULATING ELASTIN SYNTHESIS” (priority 1997, published 2002)
Values joined by “and” are separate entries in the source; they are usually repeats but may differ in a detail not shown here. Identical values can stand only once.

What was measured:
[1] = tested on: normal human fibroblasts (NHF-47 years); test: Elastin secreted by normal human skin fibroblasts, ELISA on culture supernatants (NHF-47 years); type: cell-based; conditions: for Activity in % (stimulation of elastin secretion vs control): 48 h; for ng Elastin/μg prot/48 h: n=6
From the text: The cells had been obtained by the method of explants as described by M. Dumas et al. in the article entitled “in vitro biosynthesis of type I and III collagens by human dermal fibroblasts from donors of increasing ages” in Mech. Ageing Dev. 73 (1994), pages 179-187. These normal human skin fibroblasts thus obtained are sown in the wells of a multi-well culture box, in an E 199 culture medium, in which 2 millimoles per liter of L-glutamine have been added. Further, for a certain number of tests, the culture medium contains sodium ascorbate at concentrations of 15 or 25 micromoles per liter. 24 hours after sowing, certain wells receive ginsenoside Rb1 or an extract of Panax 1 to 10 μg/ml via a solution in DMSO so that the final DMSO concentration be 0.1%. […] These control cultures only receive DMSO at a final concentration of 0.1% by weight. The culture is continued for 48 h. After 48 h of culture as indicated above, the elastin secreted is determined on the supernatants of the culture, by an ELISA method derived from that used for the determination of collagen, as described by M. Dumas et al in the publication cited above, except that a commercial human anti-elastin polyclonal antibody was used instead of the human anti-collagen I and III polyclonal antibodies. A standard range made from commercial soluble elastin enables converting into nanograms of elastin the values of optical density (OD) obtained from the culture supernatants. In parallel with the determination of the elastin, a determination of the cell proteins is carried out on the cultures of fibroblasts, after removal of the supernatant, in order to bring the amount of elastin determined to a fixed amount of cell proteins. The determination is carried out by using a BCA-1 kit (Bicinchoninic acid kit, marketed by Sigma, France) after dissolution of the cell plug with 0.1 N sodium hydroxide solution. The results are expressed in nanograms of elastin secreted per microgram of cellular proteins. The activity A of stimulation, expressed in percentage, is calculated according to the following formula: [formula] The results obtained on the treated cultures (n=6) and controls (n=6) are compared with the aid of the Student t test for non-paired series. Any value of p<0.05 will indicate that a significant difference exists between the secretion of elastin of the control NHFs and those treated with the products of the invention.

[2] = tested on: normal human fibroblasts (NHF-50 years); test: Elastin secreted by normal human skin fibroblasts, ELISA on culture supernatants (NHF-50 years); type: cell-based
From the text: The cells had been obtained by the method of explants as described by M. Dumas et al. in the article entitled “in vitro biosynthesis of type I and III collagens by human dermal fibroblasts from donors of increasing ages” in Mech. Ageing Dev. 73 (1994), pages 179-187. These normal human skin fibroblasts thus obtained are sown in the wells of a multi-well culture box, in an E 199 culture medium, in which 2 millimoles per liter of L-glutamine have been added. Further, for a certain number of tests, the culture medium contains sodium ascorbate at concentrations of 15 or 25 micromoles per liter. 24 hours after sowing, certain wells receive ginsenoside Rb1 or an extract of Panax 1 to 10 μg/ml via a solution in DMSO so that the final DMSO concentration be 0.1%. […] These control cultures only receive DMSO at a final concentration of 0.1% by weight. The culture is continued for 48 h. After 48 h of culture as indicated above, the elastin secreted is determined on the supernatants of the culture, by an ELISA method derived from that used for the determination of collagen, as described by M. Dumas et al in the publication cited above, except that a commercial human anti-elastin polyclonal antibody was used instead of the human anti-collagen I and III polyclonal antibodies. A standard range made from commercial soluble elastin enables converting into nanograms of elastin the values of optical density (OD) obtained from the culture supernatants. In parallel with the determination of the elastin, a determination of the cell proteins is carried out on the cultures of fibroblasts, after removal of the supernatant, in order to bring the amount of elastin determined to a fixed amount of cell proteins. The determination is carried out by using a BCA-1 kit (Bicinchoninic acid kit, marketed by Sigma, France) after dissolution of the cell plug with 0.1 N sodium hydroxide solution. The results are expressed in nanograms of elastin secreted per microgram of cellular proteins. The activity A of stimulation, expressed in percentage, is calculated according to the following formula: [formula] […]

[3] = tested on: fibrocytes; conditions: Tanaka H. et al., 1991; cited from earlier work
[4] = tested on: keratinocytes; conditions: Nack-in-Kim et al., J.Invest.Dermatol. 1993; cited from earlier work
[5] = product 10 μg/ml, no ascorbate, DMSO 0.1%

Which “Activity in % (stimulation of elastin secretion vs control)” value (“Activity in %” below) ([1]; product 10 μg/ml + Asc. 15 μM) does the source give for `CC(C)=CCC[C@](C)(O[C@@H]1O[C@H](CO[C@@H]2O[C@H](CO)[C@@H](O)[C@H](O)[C@H]2O)[C@@H](O)[C@H](O)[C@H]1O)[C@H]1CC[C@]2(C)[C@@H]1[C@H](O)C[C@@H]1[C@@]3(C)CC[C@H](O[C@@H]4O[C@H](CO)[C@@H](O)[C@H](O)[C@H]4O[C@@H]4O[C@H](CO)[C@@H](O)[C@H](O)[C@H]4O)C(C)(C)[C@@H]3CC[C@]12C` [G-Rb1, ginsenoside Rb1] here?
The value was 16%.

And the “ng Elastin/μg prot/48 h” value ([1]; product 10 μg/ml + Asc. 15 μM)?
Its value is 39.3 + 2.8 ng Elastin/μg prot/48 h.

What about the “Activity in %” value ([1]; product 10 μg/ml + Asc. 25 μM) of the same compound?
Its value is 10%.

And the “ng Elastin/μg prot/48 h” value ([1]; product 10 μg/ml + Asc. 25 μM)?
Its value is 38.8 + 6.8 ng Elastin/μg prot/48 h.

And the “Activity in %” value [1, 5]?
The value was 31%.

And the “ng Elastin/μg prot/48 h” value [1, 5]?
The value was 25.8 ± 2.2 ng Elastin/μg prot/48 h.

What about the “Activity in %” value ([2]; NHF-50 years, product 10 μg/ml + Asc. 25 μM, 48 h) of the same compound?
Its value is 21% and 17%.

What about the “ng Elastin/μg prot/48 h” value ([2]; NHF-50 years, product 10 μg/ml + Asc. 25 μM, 48 h, n=6) of the same compound?
The value was 26.3 + 3.7 ng Elastin/μg prot/48 h and 32 + 4.3 ng Elastin/μg prot/48 h and 28 + 2.2 ng Elastin/μg prot/48 h.

What about the “synthesis of elastin by the fibroblasts (conclusion in words)” value ([2]; conclusion from Tables 1 to 3 (NHF-47 and NHF-50 years), stimulation augments with concentration) of the same compound?
The value was “strongly stimulate the synthesis of elastin”.

Which “synthesis of glycosaminoglycans (GAG) by the fibrocytes” value [3] does the source give for `CC(C)=CCC[C@](C)(O[C@@H]1O[C@H](CO[C@@H]2OC[C@H](O)[C@H](O)[C@H]2O)[C@@H](O)[C@H](O)[C@H]1O)[C@H]1CC[C@]2(C)[C@@H]1[C@H](O)C[C@@H]1[C@@]3(C)CC[C@H](O[C@@H]4O[C@H](CO)[C@@H](O)[C@H](O)[C@H]4O[C@@H]4O[C@H](CO)[C@@H](O)[C@H](O)[C@H]4O)C(C)(C)[C@@H]3CC[C@]12C` [ginsenoside Rb2] here?
The value was “effective to stimulate the synthesis of glycosaminoglycans (GAG)”.

With ginsenoside as the compound, how does the “action on the proliferation of the keratinocytes” value [4] read?
Its value is “inhibitory action”.
